From paper PMC8966664 (Frontiers in Pharmacology, 2022)

Tests used:
Type in all cases: in vivo, Sprague Dawley rats
RTS-induced liver damage = assay: Histological examination (H&E) and scoring of liver damage, modified DeLeve's system; set-up: key to Central vein endothelial damage / Sinusoidal hemorrhage / Sinusoidal dilation / Coagulative necrosis / Apoptotic bodies / Subendothelial fibrosis / Sinusoid fibrosis / Subendothelial hemorrhage: 0-absent; 1-mild; 2-moderate; 3-severe; conditions: rats
Procedure: (§1) EX and GA were dissolved in distilled water at 37°C for oral administration with the dosage of EX and GA as 500 mg/kg and 50 mg/kg. […] RTS was given following the last dose of distilled water/GA/EX. Detailed dosage regimens are described in Supplementary Figure S2. All rats were sacrificed at 48 h after the last dosing. Serum and liver samples were collected and stored at −80°C until use.
The largest lobe of the liver was sliced, fixed in 10% buffered-neutral formalin for 24 h, and embedded in wax. Sections of 5 µm in thickness were subjected to hematoxylin and eosin staining before being examined. Liver injury (necrosis, endothelial cell damage, and hemorrhage) was evaluated with a LEICA DM5000B Microscope (Leica, Heidelberg, Germany).
Protective effects of EX and GA on RTS-induced hepatotoxicity were also evaluated by histopathological examination. […] The damage of sinusoidal endothelial cells was further measured by the immunofluorescence of RECA-1. […] The degrees of hemorrhage, sinusoidal dilation, and necrosis were assessed and scored (Table 2) according to a modified DeLeve’s system ([Deleve et al., 1999]) as summarized in Supplementary Table S3.

[1] = system: sinusoidal endothelial cells; assay: Immunofluorescence of RECA-1 in liver sections; conditions: rats; EX or GA treated groups + RTS
Procedure: as §1
The largest lobe of the rat liver was sliced, cold-embedded in Tissue-Tek OCT compound, and processed for immunohistochemistry according to the Abcam IHC frozen sections staining protocol. The tissue slices were incubated with rat endothelial cell antigen (RECA)-1 antibody and Alexa Fluor 488-conjugated goat anti-mouse IgG, and then stained with DAPI and observed under Olympus FluoViewTM FV1000 confocal microscope.

pyrrole-protein adducts [2] = assay: Formation of pyrrole-protein adducts in liver and serum/plasma of RTS-treated rats
Procedure: as §1
The pyrrole-protein adducts were measured according to our previously developed method ([Lin et al., 2011]; [Ruan et al., 2014]). Briefly, 50 mg liver or 100 µL serum/plasma was mixed with acetone and centrifuged at 900 x g for 10 min. The precipitated protein was treated with silver nitrate (20 mg/ml) in ethanol containing 5% trifluoroacetic acid to release pyrrole moiety from the pyrrole-protein adducts. After centrifugation, an aliquot of the supernatant was incubated with 4-dimethylaminobenzaldehyde (20 mg/ml) at 56°C for 10 min. The mixture was filtered and subjected to LC-MS/MS analysis. 7,9-diGS-DHP was used as a standard with a concentration ranging from 0.2 to 2000 nM and underwent the same preparation process to construct a calibration curve. […] After centrifuging at 20,000 x g for 30 min, the supernatants were collected and analyzed by LC-MS/MS according to our previously developed methods ([Ma et al., 2019]; [He et al., 2021a]; [Ma et al., 2021]).
The LC-MS/MS analysis was performed on an Agilent 6460 Triple Quadrupole LC/MS System using a Waters Acquity BEH C18 column (2.1 × 100 mm, […]). For the detection of pyrrole-protein adducts, the mobile phase of water containing 0.1% formic acid (A) and acetonitrile containing 0.1% formic acid (B) was used with a gradient elution as follows: 0–5 min, 35–95% B; 5.5–6 min, 95–35% B. The flow rate was 0.3 ml/min. The injection volume was 3 μL. […] The injection volume was 5 µL. The mass spectrometer was operated in multiple reactions monitoring for data acquisition.

pyrrole-protein adducts [3] = assay: Toxicokinetic study: plasma kinetic profile of pyrrole-protein adducts; conditions: rats; GA 50 mg/kg + RTS 30 mg/kg vs RTS group
Procedure: For the toxicokinetic study, jugular vein cannulation was performed on rats on the day before drug administration. The right jugular vein was cannulated with a polyethylene tube (0.4 mm i.d. × 0.8 mm o.d., SIMS Portex, United Kingdom) for blood sampling. The rats were maintained in individual metabolic cages and fasted overnight with free access to water. […] Saline (0.2 ml) containing 25 units of heparin/mL was injected after each blood sampling for compensation of blood withdrawal. The blood samples were then centrifuged at 3,000 x g for 30 min, and plasma samples were harvested and stored at −20°C until use.
The pyrrole-protein adducts were measured according to our previously developed method ([Lin et al., 2011]; [Ruan et al., 2014]). Briefly, 50 mg liver or 100 µL serum/plasma was mixed with acetone and centrifuged at 900 x g for 10 min. […] After centrifuging at 20,000 x g for 30 min, the supernatants were collected and analyzed by LC-MS/MS according to our previously developed methods ([Ma et al., 2019]; [He et al., 2021a]; [Ma et al., 2021]). […]
Data are expressed as mean ± SD. […] Toxicokinetic parameters were calculated by noncompartmental methods using WinNonlin version 4.0 (Pharsight, Mountain View, CA, United States). […] The inhibition constant (K i ) value of GA was determined by the secondary Lineweaver-Burk plots. […]

[4] = multiple dose (EX 500 mg/kg/day or GA 50 mg/kg/day, 5 consecutive days) + RTS 40 mg/kg, 48 h after last dosing
[5] = single dose (EX 500 mg/kg or GA 50 mg/kg) + RTS 40 mg/kg, 48 h after last dosing
[6] = multiple treatment (EX 500 mg/kg or GA 50 mg/kg) + RTS
[7] = single treatment (EX 500 mg/kg or GA 50 mg/kg) + RTS

With `CC1(C)[C@@H](O)CC[C@]2(C)[C@H]3C(=O)C=C4[C@@H]5C[C@@](C)(C(=O)O)CC[C@]5(C)CC[C@@]4(C)[C@]3(C)CC[C@@H]12` [GA, 18β-glycyrrhetinic acid] the Apoptotic bodies (RTS-induced liver damage; EX, GA or RTS alone) was 0, the “Central vein endothelial damage” value (RTS-induced liver damage; EX, GA or RTS alone) was 0 and the Coagulative necrosis (RTS-induced liver damage; EX, GA or RTS alone) was 0. For the same compound, the “Overall (sum of the scores from all individual parameters)” value (“Overall” for short) (RTS-induced liver damage; EX, GA or RTS alone) was 0, the Sinusoid fibrosis (RTS-induced liver damage; EX, GA or RTS alone) was 0 and the Sinusoidal dilation (RTS-induced liver damage; EX, GA or RTS alone) was 0. The Sinusoidal hemorrhage (RTS-induced liver damage; EX, GA or RTS alone) was 0, the Subendothelial fibrosis (RTS-induced liver damage; EX, GA or RTS alone) was 0 and the Subendothelial hemorrhage (RTS-induced liver damage; EX, GA or RTS alone) was 0. The “RTS-induced hemorrhage and necrosis” value (RTS-induced liver damage; both single and multiple doses + RTS) was “significantly ameliorated”, the Apoptotic bodies (RTS-induced liver damage; [4]) was 0 and the “Central vein endothelial damage” value (RTS-induced liver damage; [4]) was 1. The Coagulative necrosis (RTS-induced liver damage; [4]) was 0, the “Overall” value (RTS-induced liver damage; [4]) was 2-5 and the Sinusoid fibrosis (RTS-induced liver damage; [4]) was 0. For the same compound, the Sinusoidal dilation (RTS-induced liver damage; [4]) was 1-2, the Sinusoidal hemorrhage (RTS-induced liver damage; [4]) was 0-1 and the Subendothelial fibrosis (RTS-induced liver damage; [4]) was 0. For the same compound, the Subendothelial hemorrhage (RTS-induced liver damage; [4]) was 0-1, the Apoptotic bodies (RTS-induced liver damage; [5]) was 0 and the “Central vein endothelial damage” value (RTS-induced liver damage; [5]) was 1. The Coagulative necrosis (RTS-induced liver damage; [5]) was 1, the “Overall” value (RTS-induced liver damage; [5]) was 6-7 and the Sinusoid fibrosis (RTS-induced liver damage; [5]) was 0. The Sinusoidal dilation (RTS-induced liver damage; [5]) was 2, the Sinusoidal hemorrhage (RTS-induced liver damage; [5]) was 1 and the Subendothelial fibrosis (RTS-induced liver damage; [5]) was 0. The Subendothelial hemorrhage (RTS-induced liver damage; [5]) was 1-2, the “histopathological examination of liver” value (RTS-induced liver damage; substance alone) was “No obvious liver damage” and the “RTS-induced damage of sinusoids (RECA-1 immunofluorescence)” value [1] was “significantly less”. The “reduction of pyrrole-protein adducts in liver” value (pyrrole-protein adducts [2]; [6]) was 32.5%, the “reduction of pyrrole-protein adducts in plasma” value (pyrrole-protein adducts [2]; [6]) was 56.5% and the “reduction of pyrrole-protein adducts in liver” value (pyrrole-protein adducts [2]; [7]) was 30.3%. The “reduction of pyrrole-protein adducts in plasma” value (pyrrole-protein adducts [2]; [7]) was 50.8% and the “reduction of AUC0–1440min of pyrrole-protein adducts” value (pyrrole-protein adducts [3]) was 16.2%.
